Data taken from US8084621B2, “3-Pyrrolo[b]cyclohexylene-2-dihydroindolinone derivatives and uses thereof” (Jiangsu Simcere Pharmaceutical R&D Co. Ltd., priority 2006, dated 2011).

The compounds below were run against T1, VEGFR-2 (Homo sapiens, UniProt P35968) (assay: Protein kinase activity by ELISA in vitro, VEGFR-2). Conditions: read-out: IC50 of the VEGF Receptor Kinase.
T1 construct: purchased Cell Signaling Technology CO
T1 sequence (P35968 20-1356): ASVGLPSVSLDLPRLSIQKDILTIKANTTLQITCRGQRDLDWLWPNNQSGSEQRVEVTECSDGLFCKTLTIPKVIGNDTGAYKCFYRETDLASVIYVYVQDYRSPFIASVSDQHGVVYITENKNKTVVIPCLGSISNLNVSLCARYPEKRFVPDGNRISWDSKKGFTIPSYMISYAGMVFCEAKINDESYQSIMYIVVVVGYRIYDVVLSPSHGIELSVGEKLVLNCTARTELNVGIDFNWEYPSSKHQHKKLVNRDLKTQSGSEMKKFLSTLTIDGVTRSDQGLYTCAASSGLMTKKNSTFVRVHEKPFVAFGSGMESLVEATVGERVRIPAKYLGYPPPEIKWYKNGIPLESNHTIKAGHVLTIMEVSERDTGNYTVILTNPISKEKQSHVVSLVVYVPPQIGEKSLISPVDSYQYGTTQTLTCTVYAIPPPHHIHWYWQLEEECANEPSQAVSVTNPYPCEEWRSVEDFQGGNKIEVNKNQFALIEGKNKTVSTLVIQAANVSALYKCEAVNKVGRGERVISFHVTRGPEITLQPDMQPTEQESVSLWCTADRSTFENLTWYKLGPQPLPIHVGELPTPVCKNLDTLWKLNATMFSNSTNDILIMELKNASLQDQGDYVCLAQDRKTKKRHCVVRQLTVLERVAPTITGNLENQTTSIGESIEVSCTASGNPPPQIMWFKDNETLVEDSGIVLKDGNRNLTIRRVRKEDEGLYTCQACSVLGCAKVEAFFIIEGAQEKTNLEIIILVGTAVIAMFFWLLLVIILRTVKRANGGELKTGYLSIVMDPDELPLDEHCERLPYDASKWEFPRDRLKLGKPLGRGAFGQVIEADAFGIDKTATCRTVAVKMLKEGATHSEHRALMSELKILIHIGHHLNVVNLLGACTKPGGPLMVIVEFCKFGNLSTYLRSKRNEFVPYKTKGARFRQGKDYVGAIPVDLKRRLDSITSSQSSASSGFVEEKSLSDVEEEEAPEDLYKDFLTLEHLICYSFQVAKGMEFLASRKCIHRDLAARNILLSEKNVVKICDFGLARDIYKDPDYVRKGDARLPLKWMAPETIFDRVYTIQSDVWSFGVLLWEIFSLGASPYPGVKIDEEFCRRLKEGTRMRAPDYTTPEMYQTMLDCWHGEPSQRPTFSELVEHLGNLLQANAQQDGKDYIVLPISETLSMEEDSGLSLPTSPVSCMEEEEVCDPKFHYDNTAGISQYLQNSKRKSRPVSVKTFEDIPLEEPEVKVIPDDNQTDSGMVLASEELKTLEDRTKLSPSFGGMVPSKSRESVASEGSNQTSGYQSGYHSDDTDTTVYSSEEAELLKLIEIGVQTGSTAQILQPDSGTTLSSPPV
Format: biochemical
Procedure: An ELISA (Enzyme-Linked Immunosorbent Sandwich Assay) procedure may be used to detect and measure the level of protein tyrosine kinase activity. […] According to the principle of ELISA, a monoclonal antibody can react with phosphorylated substrate specially, so biotin-labeled substrate is binded to streptavidin-coated ELISA plate, and then binded to a HRP-labeled goat anti-mouse antibody. Finally TMB is added for a color reaction and the value of A450-A630 is read by ELISA plate reader. The OD value can reflect the inhibitory activity of the VEGFR-2, PDGFR-β, c-Kit tyrosine kinases etc. treated with the test compounds at the different concentrations. So, the assay may be used to measure the inhibition ratio of the compounds for the tyrosine kinase activity. Similar assays can be designed along the same lines for any PK using techniques well known in the art.
According to the principle of ELISA, a monoclonal antibody can react with phosphorylated substrate specially, so biotin-labeled substrate is binded to streptavidin-coated ELISA plate, and then binded to a HRP-labeled goat anti-mouse antibody. Finally TMB is added for a color reaction and the value of A450-A630 is read by ELISA plate reader. The OD value can reflect the inhibitory activity of the VEGFR-2, PDGFR-β c-Kit tyrosine kinases treated with the test compounds at the different concentrations. So, the assay may be used to measure the inhibition ratio of the compounds for the tyrosine kinase activity. Similar assays can be designed along the same lines for any PK using techniques well known in the art.
VEGF Receptor 2, PDGF Receptor-beta and c-kit kinase assay kit (include kinase, 1.25M DTT, substrate peptide, 10 mM ATP, P-Tyr-100 Mouse antibody, 4×HTScan tyrosine kinase buffer), Cell Signaling Technology CO.; HRP labeled goat anti mouse IgG, Protein Tech CO.; TMB, Pierce CO.; Streptavidin Microtitration Plate, Greiner Bio-one CO.; Infinite M200 Reader, Tecan CO.
1.2.1 Immediately transfer enzyme from −80° C. to ice. Allow enzyme to thaw on ice then at 4° C. and centrifugate transiently to the bottom of centrifuge tube, then lay back on ice quickly
1.2.2 Add 10 μl of DTT (1.25 M) to 2.5 ml of 4×HTScan tyrosine kinase buffer (240 mM HEPES pH 7.5, 20 mM MgCl2, 20 mM MnCl2, 12 μM Na3VO4). Transfer 0.6 ml of DTT/Kinase buffer to each enzyme tube to make 4× reaction Cocktail. Incubate 12.5 μl of the 4× reaction cocktail with 12.5 μl/well prediluted compound of interest for 5 minutes at room temperature, and set blank control, free-enzyme control, negative control and positive control. 1.2.3 Add 10 μl 10 mM ATP to 1.25 ml 6 μM substrate peptide. Dilute the mixture with dH20 to 2.5 ml to make 2×ATP/substrate cocktail. Add 25 μl of 2×ATP/substrate cocktail to 25 μl/well preincubated reaction cocktail/compound. Incubate reaction plate at room temperature for 30 minutes. 1.2.4 Add 50 μl/well stop Buffer (50 mM EDTA, pH 8) to stop the reaction. Transfer 25 μl of each reaction and 75 μl dH2O/well to a 96-well streptavidin coated plate and incubate at room temperature for 60 minutes. Wash three times with 200 μl/well PBS/T(1×PBS, 0.05% Tween-20). 1.2.5 Dilute primary antibody, Phospho-Tyrosine mAb (P-Tyr-100), 1:500 in PBS/T with 1% BSA. Add 100 μl/well primary antibody. Incubate at room temperature for 60 minutes. Wash three times with 200 μl/well PBS/T(1×PBS, 0.05% Tween-20). 1.2.6 Prepare appropriate dilution of HRP labeled secondary antibody, 1:500 in PBS/T with 1% BSA. Add 100 μl/well secondary antibody solution. Incubate at room temperature for 30 minutes. Wash five times with 200 μl/well PBS/T 1.2.7 Add 100 μl/well TMB substrate and incubate at room temperature for 1-10 minutes. Add 50 μl 2M H2SO4 to stop the color reaction. Read the absorbance of A450-A630 with the Infinite M200 microtiter plate reader. 1.2.8 Calculate the inhibition ratio with the following formula: […]
CCN(CC)CCNC(=O)c1c(C)[nH]c2c1CCC/C2=C1/C(=O)Nc2ccc(C(=O)O)cc21 [I-44, N-(2-(diethylamino)ethyl)-2-methyl-7-[1,2-dihydro-5-carboxyl-2-oxo-3H-indol-(Z)-3-ylidene]-4,5,6,7-tetrahydro-1H-indole-3-carboxamide] was tested, and the IC50 was 6.8 nM.
Compound Cc1[nH]c2c(c1C(=O)N1CCC[C@H]1CN1CCCC1)CCC/C2=C1/C(=O)Nc2ccc(F)cc21 [I-60] has an IC50 of 14 nM.
In the case of Cc1[nH]c2c(c1C(=O)NCCN1CCCCC1)CCC/C2=C1/C(=O)Nc2ccc(F)cc21 [I-26, N-(2-(piperidin-1-yl)ethyl)-2-methyl-7-[1,2-dihydro-5-fluoro-2-oxo-3H-indol-(Z)-3-ylidene]-4,5,6,7-tetrahydro-1H-indole-3-carboxamide], the IC50 is reported as 9.1 nM.
With Cc1[nH]c2c(c1C(=O)NCCc1ccccn1)CCC/C2=C1/C(=O)Nc2ccc(F)cc21 [I-56, N-(2-(pyridin-2-yl)ethyl)-2-methyl-7-[1,2-dihydro-5-fluoro-2-oxo-3H-indol-(Z)-3-ylidene]-4,5,6,7-tetrahydro-1H-indole-3-carboxamide] the IC50 was 17 nM.
For CCN(CC)CCNC(=O)c1c(C)[nH]c2c1CCC/C2=C1/C(=O)Nc2c(F)cccc21 [I-40, N-(2-(diethylamino)ethyl)-2-methyl-7-[1,2-dihydro-7-fluoro-2-oxo-3H-indol-(Z)-3-ylidene]-4,5,6,7-tetrahydro-1H-indole-3-carboxamide], the IC50 was 82 nM.
With CCN(CC)CCNC(=O)c1c(C)[nH]c2c1CCC/C2=C1/C(=O)Nc2ccc(S(=O)(=O)NC)cc21 [I-55, N-(2-(diethylamino)ethyl)-2-methyl-7-[N-methyl-1,2-dihydro-2-oxo-3H-indol-5-sulfonamide-(Z)-3-ylidene]-4,5,6,7-tetrahydro-1H-indole-3-carboxamide] the IC50 was 19 nM.
CCN(CC)CCNC(=O)c1c(C)[nH]c2c1CCC/C2=C1/C(=O)Nc2ccc(C(=O)Nc3ccc(F)cc3)cc21 [I-51, N-(2-(diethylamino)ethyl)-2-methyl-7-[N-(4-fluorophenyl)-5-carboxamide-1,2-dihydro-2-oxo-3H-indol-(Z)-3-ylidene]-4,5,6,7-tetrahydro-1H-indole-3-carboxamide] showed an IC50 of 54 nM.
Compound CCN(CC)CCNC(=O)c1c(C)[nH]c2c1CCC/C2=C1/C(=O)Nc2ccc(NC(C)=O)cc21 [I-45] has an IC50 of 8 nM.
Compound CCN(CC)CCNC(=O)c1c(C)[nH]c2c1CCC/C2=C1/C(=O)Nc2c(C)cc(C)cc21 [I-34, N-(2-(diethylamino)ethyl)-2-methyl-7-[1,2-dihydro-5,7-dimethyl-2-oxo-3H-indol-(Z)-3-ylidene]-4,5,6,7-tetrahydro-1H-indole-3-carboxamide] has an IC50 of 11 nM.
In the case of CCN(CC)CCNC(=O)c1c(C)[nH]c2c1CCC/C2=C1/C(=O)Nc2cc(Cl)ccc21 [I-46, N-(2-(diethylamino)ethyl)-2-methyl-7-[1,2-dihydro-6-chloro-2-oxo-3H-indol-(Z)-3-ylidene]-4,5,6,7-tetrahydro-1H-indole-3-carboxamide], the IC50 is reported as 11 nM.
In the case of Cc1[nH]c2c(c1C(=O)NCCCN1CCOCC1)CCC/C2=C1/C(=O)Nc2ccc(F)cc21 [I-21, N-(3-morpholinopropyl)-2-methyl-7-[1,2-dihydro-5-fluoro-2-oxo-3H-indol-(Z)-3-ylidene]-4,5,6,7-tetrahydro-1H-indole-3-carboxamide], the IC50 is reported as 27 nM.
Compound Cc1[nH]c2c(c1C(=O)NCCN1CCOCC1)CCC/C2=C1/C(=O)Nc2ccc(Cl)cc21 [I-19, N-(2-morpholinoethyl)-2-methyl-7-[1,2-dihydro-5-chloro-2-oxo-3H-indol-(Z)-3-ylidene]-4,5,6,7-tetrahydro-1H-indole-3-carboxamide] has an IC50 of 31 nM.
Work on CCN(CC)CCNC(=O)c1c(C)[nH]c2c1CCC/C2=C1/C(=O)Nc2ccc(Br)cc21 [I-36, N-(2-(diethylamino)ethyl)-2-methyl-7-[1,2-dihydro-5-bromo-2-oxo-3H-indol-(Z)-3-ylidene]-4,5,6,7-tetrahydro-1H-indole-3-carboxamide] yielded an IC50 of 6.3 nM.
